Drawing on ChEMBL document CHEMBL4373661, “Set-up and screening of a fragment library targeting the 14-3-3 protein interface” (Medchemcomm, 2019), this text covers Activity for 3 compounds.

Active and inactive are the calls of the source. The rule behind the calls is not given here.

Experiment [1] is filed under the species Homo sapiens. Briefly: Binding affinity to 15N2H labelled human 14-3-3 protein sigma C17 deletion mutant at top of helices alphaH and alphaI assessed as chemical shift perturbations in resonances at 2000 uM by 1H-15N TROSY-HSQC 2D NMR analysis.
The species named for experiment [2] is Homo sapiens. Briefly: Binding affinity to human His6-tagged 14-3-3 protein sigma C17 deletion mutant expressed in Escherichia coli BL21 (DE3) at 500 uM by WaterLOGSY NMR analysis.
The species entered for experiment [3] is Homo sapiens. Put plainly: Binding affinity to 15N2H labelled human 14-3-3 protein sigma C17 deletion mutant at dimer interface assessed as chemical shift perturbations in resonances at 2000 uM by 1H-15N TROSY-HSQC 2D NMR analysis.

As to `CC12CC3(C)CC(C)(C1)CC(C(=O)O)(C2)C3`, the outcome in the experiment listed under Homo sapiens [1] and in the experiment filed under Homo sapiens [2] was Active.

As to `NC(=O)c1cc(Cl)cc(Cl)c1O`, the outcome in the experiment filed under Homo sapiens [3] and in the experiment filed under Homo sapiens [2] was Active.

Take `Cc1ccc(B(O)O)cc1Cl`: the outcome in the experiment filed under Homo sapiens [1] and in the experiment filed under Homo sapiens [2] was Active.
